Assay results reported in patent publication US20090186839A1, “Model for studying the role of genes in chemoresistance” (Cold Spring Harbor Laboratory, priority 2003, published 2009).
Like-named read-outs stand apart in the source and are kept apart here.

Legend:
[1] = test system: Eμ-myc/ARF−/− control lymphomas; assay: In vivo chemotherapy of mice bearing control (ARF-null) lymphomas; parameters: species or system mouse; conditions: CTX 300 mg/kg i.p.
Excerpt: (§4) Tumor cells were transplanted from the Akt-expressing tumors and from control tumors (Eμ-myc, arf^−/−, p53^+/+) into syngeneic, non-transgenic 6-10 week old C57BL/6 mice by tail vein injection [10^6 viable lymphoma cells in phosphate-buffered saline (PBS)] and recipient mice were monitored for tumor formation twice a week by palpation of the pre-scapular and cervical lymph-nodes. […] Following treatments, mice were monitored for immediate response and time to relapse by lymph node palpation and by blood smears (by tail artery bleeding) stained according to a modified Wright's protocol using the LeukoStat kit (Fisher Scientific, Pittsburgh, Pa.). The data were statistically evaluated.
A ‘complete remission’ (CR) was defined as absence of any palpable tumor and the absence of leukemia, as examined by blood smears. ‘Tumor free survival’ was defined as the time between treatment and reappearance of a well-palpable lymphoma (Schmitt, C. A., et al., “Genetic analysis of chemoresistance in primary murine lymphomas,” Nat. Med. 6: 1029-1035 (2000)). ‘Overall survival’ was defined as the time between treatment and progression to a terminal stage at which the animals were sacrificed. Tumor free and overall survival data were analyzed in the Kaplan-Meier format using the log-rank (Mantel-Cox) test for statistical significance. […]

Eμ-myc/Akt lymphomas = assay: In vivo chemotherapy of mice bearing Akt lymphomas; parameters: species or system mouse
Excerpt: as §4

Eμ-myc/PTEN+/− tumors = assay: In vivo chemotherapy of mice bearing PTEN+/− lymphomas; parameters: species or system mouse; conditions: for reversal of DXR resistance / sensitization to DXR: RAP 4 mg/kg, silvestrol 0.2 mg/kg daily 5 days i.p.
Method: Primary tumors arising in Eμ-myc/PTEN+/− and Ep-myc/PTEN+/− mice were harvested and injected into C57BL/6 (non-transgenic) mice. Upon tumor formation of palpable secondary tumors, mice were treated with a single i.p. administration of drug. The treatment schedule included an injection with either DXR ([…] in 0.9% saline), CTX (300 mg/kg in 0.9% saline), RAP (4 mg/kg in 0.9% H2O with 5% PEG/TWEEN), or a combination thereof (d1: DXR or CTX, d2: DXR or CTX and RAP, d3-5: DXR pr CTX). Mice were then palpated twice weekly for disappearance or recurrence of tumors. Data are presented as Kaplan-Meier plots in FIG. 19, and show the tumor free survival/time to relapse. Time to relapse for mice that were never tumor free was scored as ‘0’ days. […] The bottom panel has an equivalent analysis for treatment with CTX, RAP, and RAP+CTX combination.
(§1) Primary tumors arising in PTEN+/−Eμ-Myc mice were harvested and a total of 2×10^6 secondary lymphoma cells were injected into the tail veins of 6-8 week old female C57BL/6 (non-transgenic) mice. Upon tumor formation of palpable secondary tumors, mice were treated with i.p. administration of drug. The treatment schedule included an injection with DXR (once at 10 mg/kg), RAP (4 mg/kg daily for 5 days), or silvestrol (0.2 mg/kg daily for 5 days). RAP, DXR, and silvestrol were diluted in 5.2% PEG400/5.2% Tween 80 immediately prior to i.p. injection.
The ability of rocaglates to work in synergistic combination with other cytotoxic agents has not previously been tested. Silvestrol was therefore tested in combination with DXR, where silvestrol or RAP were administered once daily for 5 consecutive days, with DXR administered on day 2. Mice were then palpated twice weekly for the disappearance or recurrence of tumors.
Data are presented as Kaplan-Meier plots using the log-rank (Mantel-Cox) test for statistical significance (SigmaStat software) in FIG. 28, and show the tumor free survival/time to relapse. Time to relapse for mice that were never tumor free was scored as ‘0’ days. […]

Eμ-Myc/eIF4E lymphomas = assay: In vivo chemotherapy of mice bearing eIF4E lymphomas; parameters: species or system mouse; conditions: for animals that had developed terminal lymphoma / reversal of DXR resistance / sensitization to DXR: Eμ-Myc/eIF4E tumors, silvestrol 0.2 mg/kg daily 5 days i.p.; for animals that had developed terminal lymphoma: by the 40 day time point, DXR once 10 mg/kg
Excerpt: A ‘complete remission’ (CR) was defined as absence of any palpable tumor and the absence of leukemia, as examined by blood smears. ‘Tumor free survival’ was defined as the time between treatment and reappearance of a well-palpable lymphoma (Schmitt, C. A., et al., “Genetic analysis of chemoresistance in primary murine lymphomas,” Nat. Med. 6: 1029-1035 (2000)). ‘Overall survival’ was defined as the time between treatment and progression to a terminal stage at which the animals were sacrificed. Tumor free and overall survival data were analyzed in the Kaplan-Meier format using the log-rank (Mantel-Cox) test for statistical significance. Whole body fluorescence imaging of living animals was performed as described (Schmitt, C. A., et al., “Dissecting p53 tumor suppressor functions in vivo,” Cancer Cell 1: 289-298 (2002) and Yang, M., et al., “Whole-body optical imaging of green fluorescent protein-expressing tumors and metastases.” Proc. Natl. Acad. Sci. USA 97: 1206-1211 (2000)).
Doxorubicin (Sigma) and cyclophosphamide (Sigma) were dissolved in saline. In treatment studies, control lymphomas were ARF-null tumors arising in an Eμ-myc/ARF−/− background (Schmitt, C. A., et al., “INK4a/ARF mutations accelerate lymphomagenesis and promote chemoresistance by disabling p53,” Genes Dev. 13: 2670-2677 (1999)).
as §1, with “Eμ-Myc/eIF4E” for “PTEN+/−Eμ-Myc”, “mg/kg),” for “mg/kg), RAP (4 mg/kg daily for 5 days), or”, “days) or various combinations. DXR” for “days). RAP, DXR,”, “injection. In combination studies, silvestrol was administered once daily for 5 consecutive days, with DXR administered on day 2. Mice were then palpated regularly and monitored for the disappearance or recurrence of tumors.” for “injection.”
Data are presented as Kaplan-Meier plots using the log-rank (Mantel-Cox) test for statistical significance (SigmaStat software) in FIG. 29, showing the tumor free survival/time to relapse, and FIG. 30, showing the overall survival/time. Time to relapse for mice that were never tumor free was scored as ‘0’ days. Tumor free survival was defined as the time between treatment and reappearance of a palpable lymphoma. Overall survival was defined as the time between treatment and progression to a terminal stage at which the animals were sacrificed. […] With either compound alone, approximately 80% of the animals had developed terminal lymphoma by the 40 day time point. With a combination treatment of silvestrol and DXR, less than 30% of the animals had developed terminal lymphoma by the end test point, well over 60 days.

eIF4A = eIF4A (Homo sapiens, UniProt P60842); assay: Cross-linking experiments, eIF4A binding to mRNA; format: biochemical; conditions: data not shown
eIF4A, sequence (P60842 whole entry, species assumed): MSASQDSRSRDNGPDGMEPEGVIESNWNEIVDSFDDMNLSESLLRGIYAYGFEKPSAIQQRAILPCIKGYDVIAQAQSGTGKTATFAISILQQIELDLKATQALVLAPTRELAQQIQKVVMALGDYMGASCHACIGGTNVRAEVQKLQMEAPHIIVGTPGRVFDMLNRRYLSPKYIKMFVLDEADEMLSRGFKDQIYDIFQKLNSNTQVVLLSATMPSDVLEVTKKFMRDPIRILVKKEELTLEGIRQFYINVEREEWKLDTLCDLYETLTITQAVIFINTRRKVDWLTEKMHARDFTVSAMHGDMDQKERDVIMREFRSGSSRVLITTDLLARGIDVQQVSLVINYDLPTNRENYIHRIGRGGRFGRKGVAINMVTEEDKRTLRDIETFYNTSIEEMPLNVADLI
Excerpt: Inhibition of translation initiation induces apoptosis (Li et al., 2002, Mol. Cell. Biol. 22, 2853-2861; Polunovsky et al., 2000, J. Biol. Chem. 275, 24776-24780), although the precise mechanism by which this event is triggered is not fully understood. One hypothesis is that changes in the levels or activity of eIF4F mediate the translational regulation of specific genes involved in survival and apoptosis. Gene specific translational control is thought to be mediated by the amount of secondary structure within the 5′ untranslated regions of mRNAs which dictates the eIF4Ac-requirement for ribosome recruitment (Svitkin et al., 2001, RNA 7, 382-394).

HeLa cells = assay: [35S]-methionine incorporation into proteins (translation inhibition), 1 h incubation; format: cell-based; conditions: read-out: IC50, inhibition of [35S]-methionine incorporation into proteins
Method: Results are the average of three experiments with standard error of the mean shown.
(§2) The ability of rocaglates to induce apoptosis and inhibit protein synthesis was investigated. […] Jurkat cells were exposed to silvestrol or FA and translation inhibition and apoptosis induction were monitored. Translation initiation was measured as the inhibition of [^35S]-methionine incorporation into proteins in a dose-dependent manner. Apoptosis induction was measured as the percentage of tagged living cells measured by flow cytometry and expressed relative to vehicle treated cells.
For translation inhibition experiments, HeLa cells were incubated for 1 h with 10 μM anisomycin, 5 μM of the peptide FMRFA, 0.4 μM silvestrol, or vehicle (MeOH). Cells were then washed with PBS, and incubated with media lacking compound for the indicated times. Ten minutes before harvesting, [^35S]-methionine was added to the culture. The rate of [^35S]-methionine incorporation into TCA-insoluble material was measured and was expressed relative to vehicle (MeOH) treated cells.

Jurkat cells [2] = assay: Apoptosis / living cells by flow cytometry (Annexin V, propidium iodide); format: cell-based; conditions: 13 hr exposure, concentration not given
Method: (§3) Jurkat cells were incubated with the indicated silvestrol concentrations for 13 h after which time the rate of [^35S]-methionine incorporation or the percentage of living cells was measured. [^35S]-methionine was added 10 minutes before the end of the incubation period and the rate of incorporation is expressed relative to vehicle (MeOH) treated cells. Results are the average of two experiments with the error of the mean shown. The percentage of living cells was determined by flow cytometry following staining of the cells with Annexin V and propidium iodide. […]
as §2
Jurkat cells were incubated with the indicated silvestrol concentrations for 13 h after which time the rate of [^35S]-methionine incorporation or the percentage of living cells was measured. [^35S]-methionine was added 10 min. before the end of the incubation period and the rate of incorporation is measured relative to vehicle (MeOH) treated cells. […]

Jurkat cells [3] = assay: [35S]-methionine incorporation rate after 13 h silvestrol; format: cell-based; conditions: Homo sapiens, 13 h incubation, read-out: IC50, inhibition of protein synthesis
Method: Jurkat cells were incubated with the indicated silvestrol concentrations for 13 h after which time the rate of [^35S]-methionine incorporation or the percentage of living cells was measured. [^35S]-methionine was added 10 minutes before the end of the incubation period and the rate of incorporation is expressed relative to vehicle (MeOH) treated cells. Results are the average of two experiments with the error of the mean shown. The percentage of living cells was determined by flow cytometry following staining of the cells with Annexin V and propidium iodide. The percentage of living cells is expressed relative to vehicle (MeOH) treated and the results are the average of three experiments with the error of the mean shown.
as §3, with “min.” for “minutes”, “measured” for “expressed”, “cells.” for “cells. Results are the average of two experiments with the error of the mean shown.”, “iodide. Silvestrol induced apoptosis in 50% of Jurkat cells following 13 hr exposure (FIG. 27).” for “iodide.”

## O=P1(N(CCCl)CCCl)NCCCO1 (centres unmarked) [CTX, cyclophosphamide]
[1]
  complete remission: invariably entered a complete remission
  mice remaining tumor free after 100 days: > 50%
Eμ-myc/Akt lymphomas; Akt lymphomas, CTX 300 mg/kg i.p.
  duration of remissions: less than 20 days
Eμ-myc/Akt lymphomas; Akt lymphomas, CTX 300 mg/kg, RAP 4 mg/kg x 5 d
  mice achieving remissions lasting more than 60 days: none

## COc1cccc2c1C(=O)c1c(O)c3c(c(O)c1C2=O)C[C@@](O)(C(=O)CO)C[C@@H]3O[C@H]1C[C@H](N)[C@H](O)[C@H](C)O1 [DXR, doxorubicin]
Eμ-myc/Akt lymphomas; Akt lymphomas, DXR 10 mg/kg i.p.
  tumor free and overall survival relative to control lymphomas: substantial reductions in tumor free and overall survival
Eμ-myc/Akt lymphomas; Akt-GFP secondary tumors, day 21 post treatment
  whole body GFP imaging of tumors: sizable tumors at several sites
Eμ-myc/PTEN+/− tumors; DXR
  tumor response to therapy: resistant to DXR
Eμ-Myc/eIF4E lymphomas
  animals that had developed terminal lymphoma: approximately 80%
Eμ-Myc/eIF4E lymphomas; eIF4E lymphomas
  tumor response to therapy: highly resistant to DXR therapy

## COC(=O)[C@H]1[C@@H](OC=O)[C@@]2(O)c3c(OC)cc(OC)cc3O[C@@]2(c2ccc(OC)cc2)[C@@H]1c1ccccc1 [FA, 1-O-formylaglafoline]
eIF4A
  effect on ability of eIF4A to bind mRNA: stimulate the ability of eIF4A to bind mRNA
HeLa cells; 1 h incubation
  IC50: ~100 nM

## COC(=O)[C@H]1[C@@H](O)[C@@]2(O)c3c(OC)cc(O[C@@H]4O[C@@H]([C@H](O)CO)CO[C@H]4OC)cc3O[C@@]2(c2ccc(OC)cc2)[C@@H]1c1ccccc1 [silvestrol]
Jurkat cells [2]
  cells in which apoptosis was induced: 50%
eIF4A
  effect on ability of eIF4A to bind mRNA: stimulate the ability of eIF4A to bind mRNA
HeLa cells; Homo sapiens, HeLa, 1 h
  IC50: 20 nM
Eμ-myc/PTEN+/− tumors
  reversal of DXR resistance / sensitization to DXR: reverse this drug resistance
Eμ-myc/PTEN+/− tumors; listed as Silvestrol
  reversal of DXR resistance / sensitization to DXR: sensitizes PTEN^+/−Eμ-Myc tumors to the effects of doxorubicin
Eμ-Myc/eIF4E lymphomas
  animals that had developed terminal lymphoma: approximately 80%
  reversal of DXR resistance / sensitization to DXR: reversed this drug resistance
Eμ-Myc/eIF4E lymphomas; listed as Silvestrol
  reversal of DXR resistance / sensitization to DXR: sensitizes Eμ-Myc/eIF4E tumors to the effects of DXR
Jurkat cells [3]
  IC50: 1 nM
